The subject of assay [1] is TNF-α. The assay is described as follows: In-vitro whole cell assay for TNF-α inhibition (LPS-stimulated PBMC, ELISA). In kind it is cell-based. Conditions: TNF-α by ELISA. A digest of the protocol: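 Read-out: ELISA for TNF-α in supernatants after overnight 37° C LPS challenge (stock 200 ng/mL, RPMI/1% FCS). Cells: Ficoll-isolated human PBMC at 1.67×10^6/mL, exposed to test compound for 1 h at 37° C beforehand. Run in duplicate.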

Assay [2] concerns the target T1, P38 (Homo sapiens, UniProt Q16539). The assay is described as follows: P38 cell, 1 μM LJ. In kind it is cell-based. Further details: unit not given here.
Assay [3] deals with T1, P38. The assay is described as follows: p38 inhibition in-vitro enzyme assay. The note with it: recombinant 6×His-p38. Format: biochemical. On the procedure: Purified recombinant 6×His-p38 and GST-ATF2 (both expressed in Baculovirus) were served as enzyme and substrate in our p38 inhibition assay. The enzyme reaction was performed in the anti-GST antibody pre-coated 96-well ELISA plate.
A 96-well ELISA plate was coated with 100 μl/well of anti-GST antibody (from Amersham) at a concentration of […] and incubated overnight at 4° C. The ELISA plate was blocked with 100 μl/well of 1% BSA at 25° C. for at least 2 hours, then the plate was washed with 300 μl PBST. The enzyme reaction was started by adding 10 μl of p38 recombinant protein (0.05 nM in final concentration), 10 μl of compound in desired concentration, 10 μl of substrates (670 μM ATP, 200 nM GST-ATF2 in final concentration) and 70 μl of reaction buffer (50 mM HEPES, pH 7.4, 100 mM NaCl, 10 mM MgCl2) and the mixture was incubated at 37° C. for 30 min. Washing the reaction plate with 3×300 μl/well of PBST stopped the enzyme reaction. Detection of the phosphorylated ATF2 substrate was done by the addition of 100 μl of anti-Pi-ATF2 antibody (from Cell Signaling) at a 1:200 dilution. The mixture was incubated at 25° C. for 30 min. A solution of 100 μl of HRP-conjugated goat anti-rabbit antibody (from Pierce) at a 1:250 dilution was added and the mixture and incubated at 25° C. for 30 min. The plate was washed with 6×300 μI PBST and 100 μl of OPD substrate (from Sigma) was then added. The mixture was incubated at 25° C. for 10 min. before adding 100 μl of 3 N H2SO4. The plate was read at 490 nm.
The % inhibition of each test compound was calculated by the following formula: % inhibition=[1−(sample−BKG)/(CTRL−BKG)]×100. The IC50 of each test compound was determined by a triplicate-8 point dose titration curve by Prism GraphPad program. […]

In assay [4] the test system is TNF-α. Kind of assay: In vivo rodent assay for inhibition of LPS-induced TNF-α production. More on the design: species or system Mice (BALB/cJ females). Conditions: Mus musculus, po, 0.5 h, 10 mg/kg oral, 0.5 h, read-out: Mouse 10 mg/kg % inhib 0.5 h. In outline:
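Female BALB/cJ mice or male Lewis rats, fasted 30 min, received compound orally (mg/kg) at various times before intraperitoneal LPS at 1 mg/kg. Blood was collected by cardiac puncture 1 h after LPS, and serum TNF-α was quantified by species-specific ELISA.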

pIC50: −log10 of the molar value.

T1 sequence (Q16539 whole entry): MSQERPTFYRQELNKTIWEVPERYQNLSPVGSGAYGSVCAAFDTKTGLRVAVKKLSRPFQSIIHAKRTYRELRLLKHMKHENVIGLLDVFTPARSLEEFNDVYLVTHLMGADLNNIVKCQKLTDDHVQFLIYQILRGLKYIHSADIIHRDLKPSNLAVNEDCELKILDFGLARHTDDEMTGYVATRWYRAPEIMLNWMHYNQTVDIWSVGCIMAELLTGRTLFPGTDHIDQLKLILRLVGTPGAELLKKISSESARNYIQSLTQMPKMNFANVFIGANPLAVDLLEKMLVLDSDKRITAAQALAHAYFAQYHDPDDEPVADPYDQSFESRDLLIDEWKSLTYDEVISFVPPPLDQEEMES

Turning to `CCOC(=O)c1c(-c2ccc(F)cc2)c(-c2ccncc2)c(N2CCNCC2)n1C` [Cpd 96], the pIC50 in the assay on TNF-α [1] was 7.80; at P38 [3], below 5.00. The “P38 cell 1 μM LJ” value at P38 [2] worked out at 22. For the same compound, the inhibition in vivo at 10 mg/kg with TNF-α [4] is 79%.

In the case of `OCc1c(-c2ccc(F)cc2)c(-c2ccncc2)cn1CCN1CCOCC1` [Cpd 59], the results for the pIC50 in the assay on TNF-α [1] and at P38 [3] were 6.56 and 7.80, respectively. Further, the “P38 cell 1 μM LJ” value on P38 [2] is given as 4. In the assay on TNF-α [4], the inhibition in vivo at 10 mg/kg is -50%.

In the case of `CCC(=O)c1c(-c2ccc(F)cc2)c(-c2ccncc2)c(N2CCNCC2)n1C` [Cpd 106], the pIC50 with TNF-α [1] was 7.17; at P38 [3], below 5.00. Besides, the “P38 cell 1 μM LJ” value at P38 [2] is recorded as 21. Besides, the inhibition in vivo at 10 mg/kg in the assay with TNF-α [4] was found to be 32%.

Consider `CCOC(=O)c1c(-c2cc(F)cc(F)c2)c(-c2ccncc2)c(N2CCNCC2)n1C` [Cpd 100], for which the pIC50 is 7.03 in the assay with TNF-α [1] and below 5.00 on P38 [3]. Moreover, at P38 [2], the “P38 cell 1 μM LJ” value stood at 12. In addition, the inhibition in vivo at 10 mg/kg in the assay with TNF-α [4] is 75%.

`Fc1ccc(-c2c[nH]c(CNCc3ccncc3)c2-c2ccncc2)cc1` [Cpd 74]: the pIC50 in the assay on TNF-α [1] was 7.13; on P38 [3], 6.40. Further, the “P38 cell 1 μM LJ” value at P38 [2] worked out at 25. Further, the inhibition in vivo at 10 mg/kg in the assay with TNF-α [4] turned out to be 47%.

Turning to `CCOC(=O)c1[nH]cc(-c2ccncc2)c1-c1ccc(F)c(F)c1` [Cpd 69], the negative-log IC50 (pIC50) in the assay on TNF-α [1] was 6.25; at P38 [3], below 5.00. In addition, at P38 [2], the “P38 cell 1 μM LJ” value came to 17. Further, the inhibition in vivo at 10 mg/kg in the assay with TNF-α [4] was -32%.

In the case of `COC(=O)c1c(-c2ccc(F)cc2)c(-c2ccncc2)c(NCCN2CCOCC2)n1C` [Cpd 5], the values for the pIC50 in the assay with TNF-α [1] and on P38 [3] were 7.30 and below 5.00, respectively. Further, the “P38 cell 1 μM LJ” value on P38 [2] was 2. Besides, the inhibition in vivo at 10 mg/kg in the assay with TNF-α [4] was 44%.

Take `CCOC(=O)c1c(-c2ccc(C)cc2)c(-c2ccncc2)c(N2CCNCC2)n1C` [Cpd 83]: the pIC50 in the assay on TNF-α [1] is 7.22; on P38 [3], 5.40. Also, the “P38 cell 1 μM LJ” value at P38 [2] is given as 53. In addition, the inhibition in vivo at 10 mg/kg with TNF-α [4] is 79%.

In the case of `COC(=O)c1c(-c2ccc(F)cc2)c(-c2ccncc2)c(Cc2ccc(N(C)C)cc2)n1C` [Cpd 102], the pIC50 with TNF-α [1] is 6.93; on P38 [3], below 5.00. The “P38 cell 1 μM LJ” value on P38 [2] is 12. Further, in the assay with TNF-α [4], the inhibition in vivo at 10 mg/kg turned out to be 15%.

For `CCCc1c(-c2ccnc(N[C@@H](C)COC)n2)c(-c2ccc(F)cc2)cn1CCN1CCOCC1` [Cpd 65], the results for the pIC50 with TNF-α [1] and at P38 [3] were 9.00 and 7.68, respectively. Besides, at P38 [2], the “P38 cell 1 μM LJ” value worked out at 102. In addition, the inhibition in vivo at 10 mg/kg in the assay with TNF-α [4] was -1%.

For `CCOC(=O)c1c(-c2ccc(F)c(F)c2)c(-c2ccncc2)c(Br)n1C` [Cpd 70], the negative logarithm of the IC50 (pIC50) was 5.57 in the assay on TNF-α [1] and below 5.00 at P38 [3]. Also, the “P38 cell 1 μM LJ” value on P38 [2] amounted to 12. Moreover, the inhibition in vivo at 10 mg/kg in the assay with TNF-α [4] was -36%.

In the case of `CCOC(=O)c1[nH]cc(-c2ccncc2)c1-c1ccccc1` [Cpd 71], the results for the negative-log IC50 (pIC50) in the assay with TNF-α [1] and on P38 [3] were 6.83 and 6.24, respectively. Also, the “P38 cell 1 μM LJ” value at P38 [2] was found to be 9. In the assay with TNF-α [4], the inhibition in vivo at 10 mg/kg was 58%.

On to `CNC(=O)c1c(-c2ccc(F)cc2)c(-c2ccncc2)c(N2CCNCC2)n1C` [Cpd 99], for which the negative logarithm of the IC50 (pIC50) in the assay on TNF-α [1] was 6.97; on P38 [3], below 5.00. For the same compound, the “P38 cell 1 μM LJ” value on P38 [2] amounted to 7. The inhibition in vivo at 10 mg/kg with TNF-α [4] was -7%.

On to `COC(=O)c1c(-c2ccc(F)cc2)c(-c2ccncc2)c(NCc2ccncc2)n1C` [Cpd 103], for which the values for the negative logarithm of the IC50 (pIC50) in the assay on TNF-α [1] and on P38 [3] were 6.84 and below 5.00, respectively. For the same compound, at P38 [2], the “P38 cell 1 μM LJ” value stood at 20. Further, in the assay on TNF-α [4], the inhibition in vivo at 10 mg/kg was -22%.

For `Cn1cc(-c2ccc(F)cc2)c(-c2ccncc2)c1N1CCNCC1` [Cpd 78], the pIC50 is 7.82 in the assay on TNF-α [1] and 5.69 on P38 [3]. In addition, the “P38 cell 1 μM LJ” value at P38 [2] came out at 61. Moreover, the inhibition in vivo at 10 mg/kg in the assay on TNF-α [4] stood at 75%.

Turning to `COC(=O)c1c(-c2cccc(F)c2)c(-c2ccncc2)c(N2CCNCC2)n1C` [Cpd 105], the values for the pIC50 with TNF-α [1] and at P38 [3] were 7.16 and below 5.00, respectively. Moreover, the “P38 cell 1 μM LJ” value on P38 [2] worked out at 31. Further, the inhibition in vivo at 10 mg/kg in the assay on TNF-α [4] came to 49%.

The record behind these values is patent publication US20050043331A1, “Substituted 3-(2,5-disubstituted)pyridyl-4-aryl pyrroles for treating inflammatory diseases” (priority 2002, published 2005).
